pIC50: −log10 of the molar value.
Molecular target: Leucine-rich repeat serine/threonine-protein kinase 2 (Homo sapiens, UniProt Q5S007, G2019S)
Experiment: Inhibition of GST-tagged truncated human LRRK2 G2019S mutant using fluorescein labeled LRRKtide peptide as substrate preincubated for 15 mins followed by substrate addition measured after 90 mins in presence of ATP at Km concentration by TR-FRET Lanthascreen assay

Leucine-rich repeat serine/threonine-protein kinase 2, sequence (Q5S007 whole entry G2019S, the tested form may be a part): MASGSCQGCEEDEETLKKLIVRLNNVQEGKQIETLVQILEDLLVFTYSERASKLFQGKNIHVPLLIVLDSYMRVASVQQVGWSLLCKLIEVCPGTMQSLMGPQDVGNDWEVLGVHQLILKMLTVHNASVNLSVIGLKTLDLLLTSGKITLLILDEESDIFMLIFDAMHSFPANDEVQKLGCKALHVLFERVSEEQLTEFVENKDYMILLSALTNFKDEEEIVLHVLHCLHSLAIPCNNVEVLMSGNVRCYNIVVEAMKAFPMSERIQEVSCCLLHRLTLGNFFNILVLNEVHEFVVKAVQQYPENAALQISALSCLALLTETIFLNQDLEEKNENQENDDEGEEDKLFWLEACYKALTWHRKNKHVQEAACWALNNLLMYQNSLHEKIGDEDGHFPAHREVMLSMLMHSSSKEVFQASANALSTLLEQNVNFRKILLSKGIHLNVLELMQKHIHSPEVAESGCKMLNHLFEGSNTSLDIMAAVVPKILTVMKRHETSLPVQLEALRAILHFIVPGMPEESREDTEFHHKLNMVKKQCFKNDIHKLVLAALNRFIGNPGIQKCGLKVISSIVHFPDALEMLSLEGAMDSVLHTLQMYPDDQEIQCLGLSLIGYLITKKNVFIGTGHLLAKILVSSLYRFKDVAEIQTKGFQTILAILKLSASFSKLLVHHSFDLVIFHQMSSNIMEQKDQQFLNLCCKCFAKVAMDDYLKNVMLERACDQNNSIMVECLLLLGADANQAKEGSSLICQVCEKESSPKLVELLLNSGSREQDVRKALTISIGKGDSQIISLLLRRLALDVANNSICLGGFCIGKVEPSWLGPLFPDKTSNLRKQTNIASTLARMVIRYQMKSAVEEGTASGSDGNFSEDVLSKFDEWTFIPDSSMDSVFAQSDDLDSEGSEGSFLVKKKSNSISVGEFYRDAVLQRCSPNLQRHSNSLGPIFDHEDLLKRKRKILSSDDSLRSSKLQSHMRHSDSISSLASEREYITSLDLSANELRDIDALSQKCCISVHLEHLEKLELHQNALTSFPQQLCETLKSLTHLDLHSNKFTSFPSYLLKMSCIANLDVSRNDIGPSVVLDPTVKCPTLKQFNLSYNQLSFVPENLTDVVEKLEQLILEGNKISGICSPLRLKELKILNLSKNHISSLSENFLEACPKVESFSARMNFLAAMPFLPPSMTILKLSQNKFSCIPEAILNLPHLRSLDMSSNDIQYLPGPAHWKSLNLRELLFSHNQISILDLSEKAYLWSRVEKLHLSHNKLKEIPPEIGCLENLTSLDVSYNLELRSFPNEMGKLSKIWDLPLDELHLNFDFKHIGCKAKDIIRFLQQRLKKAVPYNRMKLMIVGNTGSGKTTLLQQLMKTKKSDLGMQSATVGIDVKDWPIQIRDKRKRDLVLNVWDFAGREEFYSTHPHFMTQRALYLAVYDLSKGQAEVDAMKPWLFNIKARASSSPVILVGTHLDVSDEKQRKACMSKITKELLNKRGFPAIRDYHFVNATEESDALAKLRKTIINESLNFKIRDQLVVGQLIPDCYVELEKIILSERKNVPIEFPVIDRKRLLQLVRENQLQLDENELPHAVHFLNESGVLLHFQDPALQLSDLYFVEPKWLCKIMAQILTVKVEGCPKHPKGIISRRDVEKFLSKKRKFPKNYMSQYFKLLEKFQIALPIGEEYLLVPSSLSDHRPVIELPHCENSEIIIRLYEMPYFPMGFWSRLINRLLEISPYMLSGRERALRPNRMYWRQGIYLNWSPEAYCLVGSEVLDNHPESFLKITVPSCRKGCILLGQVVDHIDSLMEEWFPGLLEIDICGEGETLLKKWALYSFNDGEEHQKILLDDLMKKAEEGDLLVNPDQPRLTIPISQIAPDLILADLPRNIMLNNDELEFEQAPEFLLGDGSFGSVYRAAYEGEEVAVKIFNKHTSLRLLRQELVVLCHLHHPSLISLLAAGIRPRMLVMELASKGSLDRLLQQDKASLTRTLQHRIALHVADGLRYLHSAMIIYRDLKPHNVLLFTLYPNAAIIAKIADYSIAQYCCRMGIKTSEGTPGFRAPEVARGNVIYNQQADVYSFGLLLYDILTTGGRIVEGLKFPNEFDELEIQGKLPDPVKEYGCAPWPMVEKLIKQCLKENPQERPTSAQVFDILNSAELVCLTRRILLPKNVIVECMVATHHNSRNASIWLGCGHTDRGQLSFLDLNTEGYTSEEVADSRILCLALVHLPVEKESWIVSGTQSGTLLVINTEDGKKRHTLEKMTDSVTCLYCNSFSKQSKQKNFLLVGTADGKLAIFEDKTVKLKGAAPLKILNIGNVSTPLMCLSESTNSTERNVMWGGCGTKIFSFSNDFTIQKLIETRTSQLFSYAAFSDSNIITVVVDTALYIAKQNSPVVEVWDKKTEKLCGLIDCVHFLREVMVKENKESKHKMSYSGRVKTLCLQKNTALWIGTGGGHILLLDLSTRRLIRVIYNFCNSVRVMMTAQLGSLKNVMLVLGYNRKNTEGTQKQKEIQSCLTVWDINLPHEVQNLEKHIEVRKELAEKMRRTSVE

| Compound | pIC50 |
| --- | --- |
| OC1(c2cncs2)CCN(c2cc3c(cnn3-c3cnn(C4CC4)c3)cc2Cl)CC1 | 7.01 |
| C[C@@]1(N2CCN(c3cc4c(cnn4-c4cnn(C56CC(C5)C6)c4)cc3Cl)CC2)CC[C@H]1O | 6.81 |
| [2H]C([2H])([2H])OCC12CC(n3cc(-n4ncc5cc(Cl)c(N6CCN([C@]7(C)COC[C@@H]7O)CC6)cc54)cn3)(C1)C2 | 6.80 |
| COCC12CC(n3cc(-n4ncc5cc(Cl)c(N6CCN([C@]7(C)COC[C@@H]7O)CC6)cc54)cn3)(C1)C2 | > 7.09 |
| CO[C@H]1COC[C@H]1N1CCN(c2cc3c(cnn3-c3cnn(C45CC(C4)C5)c3)cc2Cl)CC1 | 6.98 |
| Cc1cc2cnn(-c3cnn(C45CC(C4)C5)c3)c2cc1N1CCN([C@@H]2COC[C@@H]2O)CC1 | 6.59 |
